Here are results for eleven compounds from patent publication US20080039482A1, “SULFONAMIDO-MACROCYCLES AS TIE2 INHIBITORS AND SALTS THEREOF, PHARMACEUTICAL COMPOSITIONS COMPRISING SAME, METHODS OF PREPARING SAME AND USES OF SAME” (priority 2006, published 2008).

Usually IC50 stands for the point on the concentration scale where inhibition reaches its midpoint. The low end stands for inhibition by little substance, the high end for a need for much substance.

Molecules are shown by their SMILES. Where only a bound is given, the exact number is not on record here.

The target of one test is T1, Aurora-C (Homo sapiens, UniProt Q9UQB9).
T1 construct: GST; made in house; host or cells: HEK293 (the text adds '(Sf9)', which contradicts this)
T1 sequence (Q9UQB9 1-309): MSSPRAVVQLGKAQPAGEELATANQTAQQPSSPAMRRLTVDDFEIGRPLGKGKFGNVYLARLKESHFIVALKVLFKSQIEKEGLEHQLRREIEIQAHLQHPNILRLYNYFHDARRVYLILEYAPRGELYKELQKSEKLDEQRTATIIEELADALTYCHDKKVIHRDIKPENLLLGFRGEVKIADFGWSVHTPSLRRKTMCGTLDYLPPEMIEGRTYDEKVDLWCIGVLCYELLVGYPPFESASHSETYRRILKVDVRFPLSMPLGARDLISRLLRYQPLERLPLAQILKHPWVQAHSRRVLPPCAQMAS
The test can be described thus: Aurora C HTRF assay (assay 5). The format is biochemical. Conditions: IC50 assay 5/IC50 assay 2. The text has this: Assay 5: Aurora C HTRF Assay
Aurora-C inhibitory activity of compounds of the present invention was quantified employing the Aurora-C HTRF assay as described in the following paragraphs.
Recombinant fusion protein of GST and human Aurora-C was expressed in transiently transfected HEK293 cells (Sf9) and purified by Glutathion-Sepharose affinity chromatography. As substrate for the kinase reaction biotinylated peptide biotin-Ttds-FMRLRRLSTKYRT (C-terminus in amid form) was used which can be purchased e.g. form the company JERINI peptide technologies (Berlin, Germany). Aurora-C was incubated for 60 min at 22° C. in the presence of different concentrations of test compounds in 5 μl assay buffer [25 mM Hepes/NaOH pH 7.4, 0.5 mM MnCl2, 2.0 mM dithiothreitol, 0.1 mM sodium ortho-vanadate, 10 μM adenosine-tri-phosphate (ATP), […] substrate, 0.01% (v/v) TritonX-100 (Sigma), 0.05% (w/v) bovine serum albumin, 1% (v/v) dimethylsulfoxide]. The concentration of Aurora-C was adjusted depending of the activity of the enzyme lot and was chosen appropriate to have the assay in the linear range, typical concentrations were in the range of 0.3 nM. The reaction was stopped by the addition of 5 μl of a solution of HTRF detection reagents (0.2 μM streptavidine-XLent and 1.4 nM Anti-Phospho-(Ser/Thr) Akt substrate-Cryptate (Cis biointernational, France, product no. 61P02KAE), a labeled Phospho-(Ser/Thr) Akt substrate antibody [product #9611B, Cell Signalling Technology, Danvers, Mass., USA] labeled with Europium Cryptate, in an aqueous EDTA-solution (40 mM EDTA, 400 mM KF, 0.05% (w/v) bovine serum albumin in 25 mM HEPES/NaOH pH 7.0).
(§1) The resulting mixture was incubated 1 h at 22° C. to allow the binding of the biotinylated phosphorylated peptide to the streptavidine-XLent and the Anti-Phospho-(Ser/Thr) Akt substrate-Cryptate. Subsequently the amount of phosphorylated substrate was evaluated by measurement of the resonance energy transfer from the Prot-A-EuK to the streptavidine-XLent. Therefore, the fluorescence emissions at 620 nm and 665 nm after excitation at 350 nm was measured in a HTRF reader, e.g. a Rubystar (BMG Labtechnologies, Offenburg, Germany) or a Viewlux (Perkin-Elmer). The ratio of the emissions at 665 nm and at […] was taken as the measure for the amount of phosphorylated substrate. The data were normalised (enzyme reaction without inhibitor=0% inhibition, all other assay components but no enzyme=100% inhibition) and IC50 values were calculated by a 4 parameter fit using an inhouse software.
On the technique in general: TR-FRET usually uses a lanthanide donor and a delayed reading to cut background.

A further test has as its target Tie2 (Homo sapiens, UniProt Q02763). The test can be described thus: Tie-2-Kinase HTRF-Assay without kinase preactivation (assay 2). The format is biochemical. Further details: fusion protein of GST and the intracellular domains of Tie-2; GST; made in house; host or cells: insect cells (Hi-5). Conditions: 10 μM ATP, pIC50 = -log IC50 in molar concentration.
Text: Tie2-inhibitory activity of compounds of the present invention was quantified employing two Tie2 HTRF assay as described in the following paragraphs.
A recombinant fusion protein of GST and the intracellular domains of Tie-2, expressed in insect cells (Hi-5) and purified by Glutathion-Sepharose affinity chromatography was used as kinase. Alternatively, commercially available GST-Tie2-fusion protein (Upstate Biotechnology, Dundee, Scotland) can be used As substrate for the kinase reaction the biotinylated peptide biotin-Ahx-EPKDDAYPLYSDFG (C-terminus in amid form) was used which can be purchased e.g. from the company Biosynthan GmbH (Berlin-Buch, Germany). Detection of phosphorylated product is achieved specifically by a trimeric detection complex consisting of the phosphorylated substrate, streptavidin-XLent (SA-XLent) which binds to biotin, and Europium Cryptate-labeled anti-phosphotyrosine antibody PT66 which binds to phosphorylated tyrosine.
Tie-2 (3.5 ng/measurement point) was incubated for 60 min at 22° C. in the presence of 10 μM adenosine-tri-phosphate (ATP) and 1 μM substrate peptide (biotin-Ahx-EPKDDAYPLYSDFG-NH2) with different concentrations of test compounds (0 μM and concentrations in the range 0.001-20 μM) in 5 μl assay buffer [50 mM Hepes/NaOH pH 7, 10 mM MgCl2, 0.5 mM MnCl2, 1.0 mM dithiothreitol, 0.01% NP40, protease inhibitor mixture (“Complete w/o EDTA” from Roche, 1 tablet per 2.5 ml), 1% (v/v) dimethylsulfoxide]. The reaction was stopped by the addition of 5 μl of an aqueous buffer (25 mM Hepes/NaOH pH 7.5, 0.28% (w/v) bovine serum albumin) containing EDTA (90 mM) and the HTRF (Homogeneous Time Resolved Fluorescence) detection reagents streptavidine-XLent (0.2 μM, from Cis Biointernational, Marcoule, France) and PT66-Eu-Chelate (0.3 ng/μl; a europium-chelate labelled anti-phospho-tyrosine antibody from Perkin Elmer).
as §1, with “PT66-Eu-Chelate.” for “Anti-Phospho-(Ser/Thr) Akt substrate-Cryptate.”, “substrate peptide” for “substrate”, “PT66-Eu-Chelate” for “Prot-A-EuK”, “substrate peptide.” for “substrate.”

Sequence of Tie2 (Q02763 770-1124 limits assumed, species assumed): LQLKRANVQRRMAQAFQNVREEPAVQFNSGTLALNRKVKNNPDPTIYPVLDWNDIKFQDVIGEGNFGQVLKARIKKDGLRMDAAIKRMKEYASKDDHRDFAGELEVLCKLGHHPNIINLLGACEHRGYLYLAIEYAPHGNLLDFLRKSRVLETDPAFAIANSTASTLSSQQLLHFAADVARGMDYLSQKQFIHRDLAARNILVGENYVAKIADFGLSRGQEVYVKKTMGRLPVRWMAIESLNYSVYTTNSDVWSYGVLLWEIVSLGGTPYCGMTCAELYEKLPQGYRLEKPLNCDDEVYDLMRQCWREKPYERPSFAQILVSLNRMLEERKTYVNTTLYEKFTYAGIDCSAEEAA

For `Cc1ccc(C2(C(=O)Nc3ccc(-c4cnc5nc4NCCCNS(=O)(=O)c4cccc(c4)N5)cc3)CC2)cc1` [Example 1, 1-p-Tolyl-cyclopropane-carboxylic acid [4-(13,13-dioxo-13λ^6-thia-2,4,8,12,19-pentaaza-tricyclo[12.3.1.1^3,7]nonadeca-1(18),3(19),4,6, 14,16-hexaen-6-yl)-phenyl]-amide], on Aurora-C, the “Selectivity vs. Aurora C” value is listed as more than 20 fold. On Tie2, this compound came in with a half-inhibitory concentration (IC50) of less than 100 nM.
Turning to `Cc1ccccc1C1(C(=O)Nc2ccc(-c3cnc4nc3NCCCNS(=O)(=O)c3cccc(c3)N4)cc2)CC1` [Example 2, 1-o-Tolyl-cyclopropane-arboxylic acid [4-(13,13-dioxo-13λ^6-thia-2,4,8,12,19-pentaaza-tricyclo[12.3.1.1^3,7]nonadeca-1(18),3(19),4,6,14,16-hexaen-6-yl)-phenyl]-amide], on Aurora-C, the “Selectivity vs. Aurora C” value is reported as more than 20 fold. The compound also gave an IC50 at Tie2 of less than 100 nM.
In the case of `COc1cccc(C2(C(=O)Nc3ccc(-c4cnc5nc4NCCCNS(=O)(=O)c4cccc(c4)N5)cc3)CC2)c1` [Example 3, 1-(3-Methoxy-phenyl)-cyclopropane-carboxylic acid [4-(13,13-dioxo-13λ^6-thia-2,4,8,12,19-pentaaza-tricyclo[12.3.1.1^3,7]nonadeca-1(18),3(19),4,6,14,16-hexaen-6-yl)-phenyl]-amide], the “Selectivity vs. Aurora C” value on Aurora-C is given as more than 20 fold. The compound further had a half-maximal inhibitory concentration (IC50) against Tie2 of less than 100 nM.
For `COc1ccc(C2(C(=O)Nc3ccc(-c4cnc5nc4NCCCNS(=O)(=O)c4cccc(c4)N5)cc3)CC2)cc1` [Example 4, 1-(4-Methoxy-phenyl)-cyclopropane-carboxylic acid [4-(13,13-dioxo-13λ^6-thia-2,4,8,12,19-pentaaza-tricyclo[12.3.1.1^3,7]-nonadeca-1(18),3(19),4,6,14,16-hexaen-6-yl)-phenyl]-amide] the same measures were more than 20 fold and less than 100 nM.
For `O=C(Nc1ccc(-c2cnc3nc2NCCCNS(=O)(=O)c2cccc(c2)N3)cc1)C1(c2cccc(Cl)c2)CC1` [Example 5, 1-(3-Chloro-phenyl)-cyclopropane-arboxylic acid [4-(13,13-dioxo-13λ^6-thia-2,4,8,12,19-pentaaza-tricyclo[12.3.1.1^3,7]-nadeca-1(18),3(19),4,6,14,16-hexaen-6-yl)-phenyl]-amide] the same measures were more than 20 fold and less than 100 nM.
Taken in the same sequence, the figures for `O=C(Nc1ccc(-c2cnc3nc2NCCCNS(=O)(=O)c2cccc(c2)N3)cc1)C1(c2ccc(Cl)cc2)CC1` [Example 6, 1-(4-Chloro-phenyl)-cyclopropane-carboxylic acid [4-(13,13-dioxo-13λ^6-thia-2,4,8,12,19-pentaaza-tricyclo[12.3.1.1^3,7]-nonadeca-1(18),3(19),4,6,14,16-hexaen-6-yl)-phenyl]-amide] were more than 20 fold and less than 100 nM.
Consider `O=C(Nc1ccc(-c2cnc3nc2NCCCNS(=O)(=O)c2cccc(c2)N3)cc1)C1(c2ccccc2F)CC1` [Example 7, 1-(2-Fluoro-phenyl)-cyclopropane-carboxylic acid [4-(13,13-dioxo-13λ^6-thia-2,4,8,12,19-pentaaza-tricyclo[12.3.1.1^3,7]nonadeca-1(18),3(19),4,6,14,16-hexaen-6-yl)-phenyl]-amide], for which, on Aurora-C, the “Selectivity vs. Aurora C” value is given as more than 20 fold. This compound displayed an IC50 at Tie2 of less than 100 nM.
For `O=C(Nc1ccc(-c2cnc3nc2NCCCNS(=O)(=O)c2cccc(c2)N3)cc1)C1(c2cccc(F)c2)CC1` [Example 8, 1-(3-Fluoro-phenyl)-cyclopropane-carboxylic acid [4-(13,13-dioxo-13λ^6-thia-2,4,8,12,19-pentaaza-tricyclo[12.3.1.1^3,7]nonadeca-1(18),3(19),4,6,14,16-hexaen-6-yl)-phenyl]-amide] the same measures were more than 20 fold and less than 100 nM.
Taken in the same sequence, the figures for `O=C(Nc1ccc(-c2cnc3nc2NCCCNS(=O)(=O)c2cccc(c2)N3)cc1)C1(c2ccc(F)cc2)CC1` [Example 9, 1-(4-Fluoro-phenyl)-cyclopropane-carboxylic acid [4-(13,13-dioxo-13λ^6-thia-2,4,8,12,19-pentaaza-tricyclo[12.3.1.1^3.7]nonadeca-1(18),3(19),4,6,14,16-hexaen-6-yl)-phenyl]-amide] were more than 20 fold and less than 100 nM.
For `O=C(Nc1ccc(-c2cnc3nc2NCCCNS(=O)(=O)c2cccc(c2)N3)cc1)C1(c2cccc(C(F)(F)F)c2)CC1` [Example 10, 1-(3-Trifluoromethyl-phenyl)-cyclopropane-carboxylic acid [4-(13,13-dioxo-13λ^6-thia-2,4,8,12,19-pentaaza-tricyclo[12.3.1.1^3,7]nonadeca-1(18),3(19),4,6,14,16-hexaen-6-yl)-phenyl]-amide] the same measures were more than 20 fold and 100 to 1000 nM.
For the compound `O=C(Nc1ccc(-c2cnc3nc2NCCCNS(=O)(=O)c2cccc(c2)N3)cc1)C1(c2ccc(C(F)(F)F)cc2)CC1` [Example 11, 1-(4-Trifluoromethyl-phenyl)-cyclopropane-carboxylic acid [4-(13,13-dioxo-13λ^6-thia-2,4,8,12,19-pentaaza-tricyclo[12.3.1.1^3,7]nonadeca-1(18),3(19),4,6,14,16-hexaen-6-yl)-phenyl]-amide], the “Selectivity vs. Aurora C” value on Aurora-C was more than 20 fold. Further, the 50% inhibitory concentration (IC50) on Tie2 was less than 100 nM.
